This passage reports IC50 results from patent publication US9394329B2, “Glucopyranosyl derivatives and their uses in medicine” (Sunshine Lake Pharma Co., Ltd., priority 2013, dated 2016).

Each structure is given as a SMILES string.

The target of test [1] is T1, SGLT-2 (Homo sapiens, UniProt P31639).
T1 construct: expressed in transfected cells
T1 sequence (P31639 1-672): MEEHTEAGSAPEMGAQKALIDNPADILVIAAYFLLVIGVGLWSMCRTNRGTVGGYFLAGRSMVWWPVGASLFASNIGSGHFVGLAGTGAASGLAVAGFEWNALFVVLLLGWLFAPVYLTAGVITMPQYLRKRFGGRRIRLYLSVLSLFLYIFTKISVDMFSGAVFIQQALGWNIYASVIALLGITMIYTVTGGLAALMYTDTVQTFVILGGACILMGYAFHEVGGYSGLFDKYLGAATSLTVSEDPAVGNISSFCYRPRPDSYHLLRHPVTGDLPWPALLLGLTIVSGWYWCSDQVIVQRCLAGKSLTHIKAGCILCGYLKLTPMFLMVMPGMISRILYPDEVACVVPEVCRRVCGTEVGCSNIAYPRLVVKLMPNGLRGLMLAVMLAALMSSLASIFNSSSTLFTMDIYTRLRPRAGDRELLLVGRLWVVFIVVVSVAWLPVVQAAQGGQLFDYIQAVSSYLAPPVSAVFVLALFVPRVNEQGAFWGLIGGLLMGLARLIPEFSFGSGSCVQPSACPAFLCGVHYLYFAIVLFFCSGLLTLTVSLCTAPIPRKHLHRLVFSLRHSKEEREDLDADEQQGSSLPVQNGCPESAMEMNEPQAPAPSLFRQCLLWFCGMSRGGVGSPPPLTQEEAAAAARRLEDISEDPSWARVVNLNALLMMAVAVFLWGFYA
The test is described as follows: SGLT-2 activity measurement ([14C]-AMG uptake in CHO cells expressing human SGLT2). It counts as cell-based. To be noted: CHO cells expressing human SGLT2, 0.5 μm [14C]-AMG, 37° C. for 1 hour. An excerpt: (§1) The following methods can be used to determine the inhibitory activity of the compounds described in the invention for SGLT-1 and SGLT-2.
(§2) ^14C-AMG solution was purchased from PerkinElmer, Cat. No. NEZ080001MC.
(§3) α-Methylglucoside was purchased from Sigma, Cat. No. M9376-100G.
(§4) N-methyl-D-glucosamine was purchased from Sigma, Cat. No. M2004-100G.
(§5) Phloridzin was purchased from Sigma, Cat. No. P3449-1G.
(§6) 96-Well plate was purchased from Corning, Cat. No. 3903.
(§7) Mock-transfected FIP-in CHO cells (3×10^4 cells) and expressing human SGLT1/SGLT2 CHO cells were seeded into 96-well plates respectively. The cells were incubated for 12 hours. Each well of the 96-well plates was washed with 150 μL of sodium-free buffer once. To each well was added 50 μL of sodium-containing buffer containing test compounds having different concentrations and […] [^14C]-AMG. The incubation mixture was incubated at 37° C. for 1 hour. To each well was added 150 μL of precooled sodium-free buffer to terminate the reaction. The cell pellet was washed with sodium-free buffer three times and the residual liquid in well was removed. To each well was added 20 μL of precooled 100 mM NaOH. The 96-well plates were vibrated at 900 rpm for 5 minutes. Scintillation fluid (80 μL) was added to each well which was then vibrated at 600 rpm for 5 minutes. The amount of ^14C-AMG was quantitatively detected using liquid scintillation.

Test [2] addresses T2, SGLT-1 (Homo sapiens, UniProt P13866).
T2 construct: expressed in transfected cells
T2 sequence (P13866 1-664): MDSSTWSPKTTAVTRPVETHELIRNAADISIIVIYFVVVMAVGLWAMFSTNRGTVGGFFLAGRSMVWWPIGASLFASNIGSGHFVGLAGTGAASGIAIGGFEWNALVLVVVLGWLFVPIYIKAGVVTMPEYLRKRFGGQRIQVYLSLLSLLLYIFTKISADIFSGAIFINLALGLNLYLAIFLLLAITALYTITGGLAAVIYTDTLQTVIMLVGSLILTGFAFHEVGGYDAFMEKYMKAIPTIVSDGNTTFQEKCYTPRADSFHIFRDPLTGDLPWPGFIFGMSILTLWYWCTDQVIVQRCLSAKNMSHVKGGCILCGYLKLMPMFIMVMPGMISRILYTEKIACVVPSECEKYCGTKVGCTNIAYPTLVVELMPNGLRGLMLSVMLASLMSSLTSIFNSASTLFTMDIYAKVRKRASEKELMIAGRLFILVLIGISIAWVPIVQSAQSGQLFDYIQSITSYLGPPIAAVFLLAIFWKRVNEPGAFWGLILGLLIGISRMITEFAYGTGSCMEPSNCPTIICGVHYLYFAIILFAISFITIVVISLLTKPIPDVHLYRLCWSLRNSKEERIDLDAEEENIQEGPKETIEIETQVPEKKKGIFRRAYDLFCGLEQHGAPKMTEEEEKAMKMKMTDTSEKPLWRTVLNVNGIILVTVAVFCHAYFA
Briefly: SGLT-1 activity measurement ([14C]-AMG uptake in CHO cells expressing human SGLT1). It counts as cell-based. To be noted: CHO cells expressing human SGLT1, 0.5 μm [14C]-AMG, 37° C. for 1 hour.
Text: as §1, §2, §3, §4, §5, §6, §7

What is called IC50 is the concentration that gives 50% inhibition. In test [1], `CCOc1ccc(Cc2cc([C@]34OCC(C(O)CC)(O3)[C@@H](O)[C@H](O)[C@H]4O)ccc2Cl)cc1` (stereo in doubt) [Example 3, (1S,2S,3S,4R,5S)-5-[4-Chloro-3 [(4-ethoxyphenyl)methyl]phenyl]-1-(1-hydroxypropyl)-6,8-dioxabicyclo[3.2.1]octane-2,3,4-triol] displayed an IC50 of 9.8 nM. Regarding `C#CC(O)C12CO[C@@](c3ccc(Cl)c(Cc4ccc(OCC)cc4)c3)(O1)[C@H](O)[C@@H](O)[C@@H]2O` (stereo in doubt) [Example 4, (1S,2S,3S,4R,5S)-5-[4-Chloro-3 [(4-ethoxyphenyl)methyl]phenyl]-1-(1-hydroxyprop-2-yn-1-yl)-6,8-dioxabicyclo[3.2.1]octane-2,3,4-triol], the IC50 in test [1] turned out to be 9.39 nM; in test [2] it was 4210 nM. Regarding `CCOc1ccc(Cc2cc([C@]34OC[C@](C(C)O)(O3)[C@@H](O)[C@H](O)[C@H]4O)ccc2Cl)cc1` (stereo partly drawn) [Example 1, (1R,2S,3S,4R,5S)-5-[4-Chloro-3-[(4-ethoxyphenyl)methyl]phenyl]-1-(1-hydroxyethyl)-6,8-dioxabicyclo[3.2.1]octane-2,3,4-triol], the IC50 amounted to 1.65 nM in test [1] and 260 nM in test [2]. As for `CCOc1ccc(Cc2cc([C@]34OC[C@](C(C)(C)O)(O3)[C@@H](O)[C@H](O)[C@H]4O)ccc2Cl)cc1` [Example 2, (1S,2S,3S,4R,5S)-5-[4-Chloro-3-[(4-ethoxyphenyl)methyl]phenyl]-1-(2-hydroxypropan-2-yl)-6,8-dioxabicyclo[3.2.1]octane-2,3,4-triol], the IC50 in test [1] came to 1.14 nM; in test [2], 110 nM. Turning to `CC#CC(O)[C@@]12CO[C@@](c3ccc(Cl)c(Cc4ccc(OCC)cc4)c3)(O1)[C@H](O)[C@@H](O)[C@@H]2O` (stereo partly drawn) [Example 5, (1R,2S,3S,4R,5S)-5-[4-chloro-3 [(4-ethoxyphenyl)methyl]phenyl]-1-(1-hydroxybut-2-ynyl)-6,8-dioxabicyclo[3.2.1]octane-2,3,4-triol], half-maximal inhibition in test [2] (IC50) was put at 840 nM. For `CCOc1ccc(Cc2cc([C@]34OC[C@](C5(O)CC5)(O3)[C@@H](O)[C@H](O)[C@H]4O)ccc2Cl)cc1` [Example 6, (1S,2S,3S,4R,5S)-5-[4-Chloro-3 [(4-ethoxyphenyl)methyl]phenyl]-1-(1-hydroxycyclopropyl)-6,8-dioxabicyclo[3.2.1]octane-2,3,4-triol], the 50% inhibitory concentration (IC50) came to 3.6 nM in test [1] and 26800 nM in test [2].

Compound `CCOc1ccc(Cc2cc([C@]34OC[C@](C(O)CO)(O3)[C@@H](O)[C@H](O)[C@H]4O)ccc2Cl)cc1` (stereo partly drawn) [Example 7, (1R,2S,3S,4R,5S)-5-[4-Chloro-3-[(4-ethoxyphenyl)methyl]phenyl]-1-(1,2-dihydroxyethyl)-6,8-dioxabicyclo[3.2.1]octane-2,3,4-triol] registered an IC50 in test [1] of 4.96 nM. The same measure, in the same setting: with `CCOc1ccc(Cc2cc([C@]34OC(C)[C@](CO)(O3)[C@@H](O)[C@H](O)[C@H]4O)ccc2Cl)cc1` (stereo partly drawn) [Example 8, (1R,2S,3S,4R,5S)-5-[4-Chloro-3-[(4-ethoxyphenyl)methyl]phenyl]-1-(hydroxymethyl)-7-methyl-6,8-dioxabicyclo[3.2.1]octane-2,3,4-triol] the figure was 51.8 nM; with `CCOc1ccc(Cc2cc([C@]34OC[C@](C(O)CN)(O3)[C@@H](O)[C@H](O)[C@H]4O)ccc2Cl)cc1` (stereo partly drawn) [Example 10, (1R,2S,3S,4R,5S)-1-(2-Amino-1-hydroxy-ethyl)-5-[4-chloro-3-[(4-ethoxyphenyl)methyl]phenyl]-6,8-dioxabicyclo[3.2.1]octane-2,3,4-triol], 3730 nM. In turn, `CCOc1ccc(Cc2cc([C@]34OC[C@](C(O)CNC)(O3)[C@@H](O)[C@H](O)[C@H]4O)ccc2Cl)cc1` (stereo partly drawn) [Example 11, (1R,2S,3S,4R,5S)-5-[4-chloro-3-[(4-ethoxyphenyl)methyl]phenyl]-1-[1-hydroxy-2-(methylamino)ethyl]-6,8-dioxabicyclo[3.2.1]octane-2,3,4-triol] gave a half-maximal inhibitory concentration (IC50) in test [1] of 498 nM.

In turn, `CCOC(=O)OC(C)[C@@]12CO[C@@](c3ccc(Cl)c(Cc4ccc(OCC)cc4)c3)(O1)[C@H](O)[C@@H](O)[C@@H]2O` (stereo partly drawn) [Example 12, 1-[(1S,2S,3S,4R,5S)-5-[4-Chloro-3-[(4-ethoxyphenyl)methyl]phenyl]-2,3,4-trihydroxy-6,8-dioxabicyclo[3.2.1]octan-1-yl]ethyl ethyl carbonate] gave an IC50 in test [1] of 12.7 nM. `CCOc1ccc(Cc2cc([C@]34OC[C@](C(C)OC(=O)OC(C)C)(O3)[C@@H](O)[C@H](O)[C@H]4O)ccc2Cl)cc1` (stereo partly drawn) [Example 13, 1-[(1S,3S,4R,5S)-5-[4-Chloro-3-[(4-ethoxyphenyl)methyl]phenyl]-2,3,4-trihydroxy-6,8-dioxabicyclo[3.2.1]octan-1-yl]ethyl isopropyl carbonate]: the results for the IC50 in test [1] and in test [2] were 44.1 nM and 3760 nM, respectively. Taken in the same sequence, the figures for `CC(O)[C@@]12CO[C@@](c3ccc(Cl)c(Cc4ccc(OC(F)(F)F)cc4)c3)(O1)[C@H](O)[C@@H](O)[C@@H]2O` (stereo partly drawn) [Example 15, (1R,2S,3S,4R,5S)-5-[4-chloro-3-[[4-(trifluoromethoxy)phenyl]methyl]phenyl]-1-(1-hydroxyethyl)-6,8-dioxabicyclo[3.2.1]octane-2,3,4-triol] were 1.96 nM and 290 nM. The compound `CCOc1ccc(Cc2cc([C@]34OC[C@](C(C)(C)O)(O3)[C@@H](O)[C@H](O)[C@H]4O)ccc2Cl)c(F)c1F` [Example 24, (1S,2S,3S,4R,5S)-5-[4-Chloro-3-[(4-ethoxy-2,3-difluoro-phenyl)methyl]phenyl]-1-(1-hydroxy-1-methyl-ethyl)-6,8-dioxabicyclo[3.2.1]octane-2,3,4-triol] registered an IC50 in test [1] of 2.19 nM.

Turning to `CCOc1ccc(Cc2cc([C@]34OC[C@](C5CO5)(O3)[C@@H](O)[C@H](O)[C@H]4O)ccc2Cl)cc1` (stereo partly drawn) [Example 26, (1S,2S,3S,4R,5S)-5-[4-chloro-3-[(4-ethoxyphenyl)methyl]phenyl]-1-(oxiran-2-yl)-6,8-dioxabicyclo[3.2.1]octane-2,3,4-triol], the IC50 in test [1] turned out to be 6.85 nM. In test [1], `CCOc1ccc(Cc2cc([C@]34OC[C@](C5CNC(=O)O5)(O3)[C@@H](O)[C@H](O)[C@H]4O)ccc2Cl)cc1` (stereo partly drawn) [Example 27, 5-((1S,2S,3S,4R,5S)-5-(4-Chloro-3-(4-ethoxybenzyl)phenyl)-2,3,4-trihydroxy-6,8-dioxabicyclo[3.2.1]octan-1-yl)oxazolidin-2-one] gave an IC50 of 13.8 nM.

On to `CCOc1ccc(C(O)c2cc([C@]34OC[C@](C(C)O)(O3)[C@@H](O)[C@H](O)[C@H]4O)ccc2Cl)cc1` (stereo partly drawn) [Example 29, (1R,2S,3S,4R,5S)-5-[4-chloro-3-[(4-ethoxyphenyl)-hydroxy-methyl]phenyl]-1-(1-hydroxyethyl)-6,8-dioxabicyclo[3.2.1]octane-2,3,4-triol], for which, in test [1], the IC50 amounted to 1.46 nM. On the same count and under the same terms, with `CCOc1ccc(Cc2cccc([C@]34OC[C@](C(C)O)(O3)[C@@H](O)[C@H](O)[C@H]4O)c2)cc1` (stereo partly drawn) [Example 30, (1R,2S,3S,4R,5S)-5-[3-[(4-Ethoxyphenyl)methyl]phenyl]-1-(1-hydroxyethyl)-6,8-dioxabicyclo[3.2.1]octane-2,3,4-triol] the figure was 12.1 nM.
